# According to patent US10973748B2, “Compositions and methods for lightening skin and reducing hyperpigmentation” (Versitech Limited, priority 2016, dated 2021):
# Legend:
# [1] = tested on: tyrosinase; test: Western blotting of tyrosinase protein level in melan-a cells; assay type: cell-based, murine; settings: α-MSH, 72 hrs, 20 μM
# Description: (§1) Melan-a cells (3×10^5 cells/well) were seeded in 4 mL of culture medium in a 6-well plate for at least 24 hrs prior to use. The cells were treated with α-MSH (1 μM) alone, α-MSH plus plus different concentration of agents for 72 hrs. The cells were washed with cold PBS and then lysed in 100 μL of RIPA buffer containing 1% Nonidet P-40, 0.1% sodium dodecylsulfate, 0.5% sodium deoxycholate, and 2% protease inhibitor at 4° C. Samples were centrifuged at 14,000 rpm for 30 mins at 4° C., and total proteins in the supernatant were separated. 10 μg of denatured proteins were loaded per lane, and separated by 10% SDS-PAGE gel. Proteins were then transferred to Immobilon-P Transfer Membranes (Millipore Co., Bed-ford, Mass.) by semidry transfer. Membranes were incubated with primary antibodies specific for Tyrosinase, tyrosinase-related protein-1 (TRP1), tyrosinase-related protein-2 (TRP2), and microphthalmia-associated transcription factor (MITF). The blots were subsequently washed and incubated with the appropriate secondary antibodies. Immunoreactive protein bands were visualized with enhanced chemiluminescence western blotting detection reagents and quantified using an ODYSSEY Fc Imaging system. The amounts of protein loaded were normalized against a control protein, β-actin.
# [2] = tested on: microphthalmia-associated transcription factor (MITF); test: Western blotting of MITF expression in melan-a cells; assay type: cell-based, murine; settings: α-MSH, 72 hrs, 20 μM
# Description: as §1
# [3] = target: T1, tyrosinase (Mus musculus, UniProt P11344); test: Cellular tyrosinase activity assay (L-DOPA oxidation in cell lysates); assay type: cell-based, murine; settings: melan-a cells, α-MSH, 72 hrs; 6-CEPN 10 or 20 μM, 8-CEPQ 2.5 or 5 μM
# T1 construct: endogenous in cells; host or cells: melan-a cells
# T1 sequence (P11344 19-533): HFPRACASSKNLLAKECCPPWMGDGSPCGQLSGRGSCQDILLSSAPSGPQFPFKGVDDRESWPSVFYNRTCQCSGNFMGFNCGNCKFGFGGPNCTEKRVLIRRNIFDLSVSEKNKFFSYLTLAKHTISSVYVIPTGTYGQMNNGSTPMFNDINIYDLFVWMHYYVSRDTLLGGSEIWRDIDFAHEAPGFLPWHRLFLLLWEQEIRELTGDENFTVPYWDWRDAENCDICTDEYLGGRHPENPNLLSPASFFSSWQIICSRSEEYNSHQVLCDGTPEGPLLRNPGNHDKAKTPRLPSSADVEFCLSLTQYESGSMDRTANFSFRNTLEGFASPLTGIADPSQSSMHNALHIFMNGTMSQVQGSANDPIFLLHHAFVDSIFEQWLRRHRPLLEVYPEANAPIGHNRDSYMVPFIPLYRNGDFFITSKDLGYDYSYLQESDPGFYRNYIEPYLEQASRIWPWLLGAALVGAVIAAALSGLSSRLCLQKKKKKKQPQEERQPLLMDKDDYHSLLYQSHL
# Description: Cellular tyrosinase activity was determined by measuring the oxidation of L-3,4-dihydroxyphenylalanine (L-DOPA) to dopachrome in cell lysates. Melan-a cells (1.5×10^5 cells/well) were plated in 1 mL of culture medium in a 24-well multidishes for at least 24 hrs prior to use. The cells were treated with α-MSH (1 μM) alone or with α-MSH plus different concentrations of testing agents for 72 hrs. The cells were washed with cold PBS and lysed in 900 μL of PBS with 1% Triton X-100. After being freeze-thawed at −80° C. for 30 min followed by 25° C. for 30 min, 100 μL of 10 mM L-DOPA was then added to each well. Following incubation at 37° C. for 1 hr, the absorbance of the agents was measured at 490 nm using Victor X4 Multilabel Plate Reader (PerkinElmer, Mass., USA).
# [4] = tested on: MelanoDerm (Mel-300-A) epidermal equivalents containing melanocytes; test: Depigmentation in artificial skin model: brightness and L* value; assay type: cell-based, human; settings: 6-CEPN 10 μM, 8-CEPQ 5 μM
# Description: Epidermal equivalents containing melanocytes (Mel-300-A) were maintained according to the manufacturer's instructions. Mel-300-A tissue was cultured in EPI-100-NMM-113 medium for 14 days. Agents were dissolved in tissue culture medium and changed every other day. The test agents were either (1) rapamycin (2.5 μM), as the positive control in depigmentation, (2) 6-CEPN (10 μM), or (3) 8-CEPQ (5 μM). The concentration of rapamycin used was lower than 6-CEPN and 8-CEPQ, as rapamycin is toxic to cells at higher concentration. Pigmentation of these skin equivalents was compared against treatment of cells with a culture medium only (denoted as “vehicle”). Tissue viability was assessed on day 14 by CCK-8 assay as described in Example 1. On day 14, single tissues were harvested and photographed. The L* parameter was used to evaluate skin lightening or darkening. The lighter the skin, the greater the L* value. ΔL* value was measured by a Chroma Meter CR400 (Konica Minolta) for an evaluation of lightening as a function of time. Three tissues for each treatment were frozen for the Solvable Melanin assay (Bessou-Touya et al., “Chimeric human epidermal reconstructs to study the role of melanocytes and keratinocytes in pigmentation and photoprotection.” Journal of investigative dermatology 111(6):1103-1108 (1998)). Additional tissues were fixed by 10% formanin. For melanin staining in paraffin-embedded tissues, Fontana-Masson silver staining was used as previously detailed (Barbosa et al., “A simple and economical modification of the Masson-Fontana method for staining melanin granules and enterochromaffin cells.” Stain technology 59(4):193-196 (1984)).
smiles,measurement,setting,value
"O=C1C[C@@H](c2ccc(O)cc2)Oc2cc(O)c(/C=C/c3ccccc3)c(O)c21 [6-CEPN, 6-C-(E-phenylethenyl)-naringenin]",protein level of tyrosinase,[1],significantly suppressed
same,expression of MITF,[2],no clear inhibition
same,tyrosinase activity,[3],significant inhibition on tyrosinase activity in a dose-dependent manner
same,brightness of the tissues (visual examination),"[4]; 14 days, rapamycin 2.5 μM",increased the brightness of the tissues
same,L* value vs negative control,"[4]; day 14, rapamycin 2.5 μM",increased the L* value
